These are literature values, as cited in paper PMC7968864, “Theory of Allosteric Regulation in Hsp70 Molecular Chaperones” (QRB Discovery, 2020).

One data set deals with WT DnaK. The conditions noted are these: fluorescence anisotropy, ref Wang et al., 2020.
The test system of another data set is I483D DnaK. More on the design: method as in Wang et al., 2020. The conditions noted are these: fluorescein-labelled NR peptide 10 nM, fluorescence anisotropy, ref Wang et al., 2020.

“NRLLLTG [fluorescein-labelled NR peptide]”: in the data set on WT DnaK, the “peptide binding in ATP versus ADP (in words)” value was “much reduced in the presence of ATP as compared to when with ADP”. For the same substance, the “peptide binding in ADP (in words)” value in the data set with I483D DnaK is “indistinguishable from that to WT when in ADP”.
